Data published in patent US12655380B2, “Fluidic device” (UNIVERSITY PUBLIC CORPORATION OSAKA, priority 2019, dated 2026).

System: BBB model (human cerebrovascular endothelial cells, pericytes, astrocytes)
Experiment: Barrier Function Evaluation Experiment 2: passage of the fluorescent dye through the BBB model in the fluidic device
Type: in vitro ADME
Conditions: 200 μM Lucifer Yellow in first flow path; after 5 minutes (300 seconds) flow; measured in the neuron cell culture module in the second accommodation section, behind the BBB model; FIG. 25(b)/FIG. 26
Procedure: Specifically, a cubic polycarbonate three-dimensional frame having a side length of 5 mm was prepared, and a 1.5% agarose gel was poured into an opening of the three-dimensional frame and gelled to form a film-shaped window from the resulting hydrogel. The window was formed on each of five faces of the three-dimensional frame as described above. Thereafter, a clump of neurons differentiated from human brain-derived neural stem cells and Matrigel (registered trademark) being an un-gelled culture gel were injected into a cubic space within the three-dimensional frame, and the culture gel was gelled. Then, a hydrogel window was formed on a remaining face of the three-dimensional frame. Through the above, the cell culture module including neurons was produced. […]
An experiment was conducted for evaluation of the barrier function of the BBB model. […] After the fluorescent dye solution and the medium had flowed for 5 minutes (300 seconds), a fluorescence image and a phase-contrast image of the inside of the cell culture module were captured through the fluidic device.
FIGS. 24(a) and 24(b) each show a fluorescence image (left) of the inside of the cell culture module including neurons used in the control experiment, and an image (right) obtained by superimposing the fluorescence image and a phase-contrast image on one another. […]

relative luminance value on dashed line x-x' (corresponds to Lucifer Yellow concentration): approximately 0.1
Substance: Lucifer Yellow [fluorescent dye]
